Assay results: ChEMBL document CHEMBL1134747, “Synthesis and antifungal activities of novel 1,3-beta-D-glucan synthase inhibitors. Part 1” (Bioorg Med Chem Lett, 2001)
In brackets after ≈: the same amount, converted by molar mass.

Tests used:
Candida albicans [1] = assay: In vitro antifungal activity against Candida albicans CY1002 in the presence of 80% calf serum; assay type: functional, organism-based
Candida albicans [2] = assay: In vitro antifungal activity against Candida albicans […] in the absence of 80% calf serum; assay type: functional, organism-based
Beta-1,3-glucan synthase = Beta-1,3-glucan synthase (Candida albicans, UniProt O13428); assay: Inhibition of 1,3-beta-D-glucan synthase (GS) from candida albicans
[3] = Hepatotoxicity using isolated ICR mouse hepatocytes by inclusion body formation assay (In Vitro); assay type: functional, cell-based; conditions: Hepatocyte
Mus musculus = assay: In vivo antifungal activity against systemic candidiasis in mouse model after a single iv administration; assay type: functional
[4] = Hepatotoxicity determined using isolated ICR mouse hepatocytes by inclusion body formation assay (In Vitro); assay type: functional, cell-based; conditions: Hepatocyte

Beta-1,3-glucan synthase, sequence (O13428 whole entry): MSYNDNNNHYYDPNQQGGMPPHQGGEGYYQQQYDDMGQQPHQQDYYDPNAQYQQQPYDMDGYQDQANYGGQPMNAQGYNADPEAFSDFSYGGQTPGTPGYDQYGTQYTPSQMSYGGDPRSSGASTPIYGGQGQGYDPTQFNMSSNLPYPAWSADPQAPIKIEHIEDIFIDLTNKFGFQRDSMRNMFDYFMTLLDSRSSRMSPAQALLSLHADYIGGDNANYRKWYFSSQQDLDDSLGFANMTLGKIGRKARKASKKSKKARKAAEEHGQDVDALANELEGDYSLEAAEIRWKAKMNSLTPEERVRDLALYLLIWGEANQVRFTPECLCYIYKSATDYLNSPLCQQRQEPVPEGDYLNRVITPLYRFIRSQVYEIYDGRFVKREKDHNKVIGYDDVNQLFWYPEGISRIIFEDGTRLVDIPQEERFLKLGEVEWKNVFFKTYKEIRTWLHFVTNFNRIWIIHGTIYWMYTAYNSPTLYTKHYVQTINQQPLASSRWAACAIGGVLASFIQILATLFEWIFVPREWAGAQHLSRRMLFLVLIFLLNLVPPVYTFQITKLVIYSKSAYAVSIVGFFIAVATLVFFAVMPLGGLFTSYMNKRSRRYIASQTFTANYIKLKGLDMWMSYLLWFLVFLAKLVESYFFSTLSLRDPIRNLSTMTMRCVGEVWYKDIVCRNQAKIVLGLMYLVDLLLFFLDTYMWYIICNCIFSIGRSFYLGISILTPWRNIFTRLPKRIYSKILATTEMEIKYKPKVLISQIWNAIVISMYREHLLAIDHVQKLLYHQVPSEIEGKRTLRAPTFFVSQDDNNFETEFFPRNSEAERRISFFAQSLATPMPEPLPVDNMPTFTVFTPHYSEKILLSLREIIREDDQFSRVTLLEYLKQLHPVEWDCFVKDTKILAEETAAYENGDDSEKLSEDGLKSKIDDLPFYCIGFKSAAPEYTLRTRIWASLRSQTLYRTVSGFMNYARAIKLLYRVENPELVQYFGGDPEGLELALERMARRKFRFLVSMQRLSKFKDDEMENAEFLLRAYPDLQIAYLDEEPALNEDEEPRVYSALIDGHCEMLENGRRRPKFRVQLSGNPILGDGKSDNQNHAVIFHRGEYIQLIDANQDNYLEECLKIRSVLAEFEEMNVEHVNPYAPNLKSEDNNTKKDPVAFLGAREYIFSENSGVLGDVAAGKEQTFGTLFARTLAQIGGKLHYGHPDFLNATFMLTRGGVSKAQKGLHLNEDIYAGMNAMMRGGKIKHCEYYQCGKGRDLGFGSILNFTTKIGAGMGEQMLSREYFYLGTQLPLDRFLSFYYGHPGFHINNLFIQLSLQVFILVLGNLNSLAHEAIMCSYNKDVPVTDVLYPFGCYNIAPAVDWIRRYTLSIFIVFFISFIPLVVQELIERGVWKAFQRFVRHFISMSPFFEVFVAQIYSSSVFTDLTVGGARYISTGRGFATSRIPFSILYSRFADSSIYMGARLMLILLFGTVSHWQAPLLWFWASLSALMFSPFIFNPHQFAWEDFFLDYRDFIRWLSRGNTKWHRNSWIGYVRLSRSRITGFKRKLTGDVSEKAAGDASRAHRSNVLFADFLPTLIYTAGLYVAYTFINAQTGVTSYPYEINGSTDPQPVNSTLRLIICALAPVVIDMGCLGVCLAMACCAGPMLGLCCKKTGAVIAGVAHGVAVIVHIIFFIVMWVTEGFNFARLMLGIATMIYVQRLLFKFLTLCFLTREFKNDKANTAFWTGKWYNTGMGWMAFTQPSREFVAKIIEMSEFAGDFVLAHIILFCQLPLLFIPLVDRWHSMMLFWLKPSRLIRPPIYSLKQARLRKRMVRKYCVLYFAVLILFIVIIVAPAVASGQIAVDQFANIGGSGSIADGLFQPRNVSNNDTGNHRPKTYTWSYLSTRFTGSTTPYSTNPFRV

| Structure (SMILES) | IC50 (Candida albicans [1]) [µg/mL] | IC50 (Candida albicans [2]) [µg/mL] | IC50 (Beta-1,3-glucan synthase) [nM] | IC50 [3] [µg/mL] | ED50 (Mus musculus) [mg/kg] | IC50 [4] [µg/mL] |
| --- | --- | --- | --- | --- | --- | --- |
| CCCCCCCCCCCCC[C@@H]1CC(=O)N[C@@H]([C@@H](C)O)C(=O)N[C@H](C)C(=O)N[C@@H](Cc2ccc(O)cc2)C(=O)N[C@@H](C(C)C)C(=O)N2C[C@H](O)C[C@H]2C(=O)N[C@@H]([C@@H](C)O)C(=O)N[C@@H]([C@@H](C)O)C(=O)N2CC[C@H](O)[C@H]2C(=O)N[C@@H]([C@H](O)CC(N)=O)C(=O)NCC(=O)N[C@@H]([C@@H](C)O)C(=O)N[C@@H](CCCNC(=O)C(N)CCCN)C(=O)O1 (some centres not stated) | 0.47 | 0.08 (≈ 0.0485 µM) | 8 | 10 (≈ 6.07 µM) | 0.2 | – |
| CCCCCCCCCCCCC[C@@H]1CC(=O)N[C@@H]([C@H](C)O)C(=O)N[C@H](C)C(=O)N[C@@H](Cc2ccc(O)cc2)C(=O)N[C@@H](C(C)C)C(=O)N2C[C@H](O)C[C@H]2C(=O)N[C@@H]([C@@H](C)O)C(=O)N[C@@H]([C@@H](C)O)C(=O)N2CC[C@H](O)[C@H]2C(=O)N[C@@H]([C@H](O)CC(N)=O)C(=O)NCC(=O)N[C@@H]([C@@H](C)O)C(=O)N[C@@H](CCCNC(C)=O)C(=O)O1 | – | – | 230 | – | – | – |
| CCCCCCCCCCCCC[C@@H]1CC(=O)N[C@@H]([C@@H](C)O)C(=O)N[C@H](C)C(=O)N[C@@H](Cc2ccc(O)cc2)C(=O)N[C@@H](C(C)C)C(=O)N2C[C@H](O)C[C@H]2C(=O)N[C@@H]([C@@H](C)O)C(=O)N[C@@H]([C@@H](C)O)C(=O)N2CC[C@H](O)[C@H]2C(=O)N[C@@H]([C@H](O)CC(N)=O)C(=O)NCC(=O)N[C@H]([C@@H](C)O)C(=O)N[C@@H](CCCNC(=O)CN)C(=O)O1 | – | – | 20 | – | – | – |
| CCCCCCCCCCCCC[C@@H]1CC(=O)N[C@@H]([C@@H](C)O)C(=O)N[C@H](C)C(=O)N[C@@H](Cc2ccc(O)cc2)C(=O)N[C@@H](C(C)C)C(=O)N2C[C@H](O)C[C@H]2C(=O)N[C@@H]([C@@H](C)O)C(=O)N[C@@H]([C@@H](C)O)C(=O)N2CC[C@H](O)[C@H]2C(=O)N[C@@H]([C@H](O)CC(N)=O)C(=O)NCC(=O)N[C@@H]([C@@H](C)O)C(=O)N[C@H](CCCNC(=O)C(N)CCCN)C(=O)O1 (some centres not stated) | 0.33 | 0.12 (≈ 0.0728 µM) | 5 | 30 (≈ 18.2 µM) | 0.1 | – |
| CCCCCCCCCCCCC[C@@H]1CC(=O)N[C@@H]([C@@H](C)O)C(=O)N[C@H](C)C(=O)N[C@@H](Cc2ccc(O)cc2)C(=O)N[C@@H](C(C)C)C(=O)N2C[C@H](O)C[C@H]2C(=O)N[C@@H]([C@@H](C)O)C(=O)N[C@@H]([C@@H](C)O)C(=O)N2CC[C@H](O)[C@H]2C(=O)N[C@@H]([C@H](O)CC(N)=O)C(=O)NCC(=O)N[C@@H]([C@@H](C)O)C(=O)N[C@@H](CCCN)C(=O)O1 | 0.57 | 0.02 (≈ 0.013 µM) | 12 | 10 (≈ 6.52 µM) | – | – |
| CCCCCCCCCCCCC[C@@H]1CC(=O)N[C@@H]([C@@H](C)O)C(=O)N[C@H](C)C(=O)N[C@@H](Cc2ccc(O)cc2)C(=O)N[C@@H](C(C)C)C(=O)N2C[C@H](O)C[C@H]2C(=O)N[C@@H]([C@@H](C)O)C(=O)N[C@@H]([C@@H](C)O)C(=O)N2CC[C@H](O)[C@H]2C(=O)N[C@@H]([C@H](O)CC(N)=O)C(=O)NCC(=O)N[C@@H]([C@@H](C)O)C(=O)N[C@@H](CCCNC(=O)OC(C)(C)C)C(=O)O1 | – | – | – | – | 0.22 | – |
| CCCCCCCCCCCCC[C@@H]1CC(=O)N[C@@H]([C@H](C)O)C(=O)N[C@H](C)C(=O)N[C@@H](Cc2ccc(OCc3ccccc3)cc2)C(=O)N[C@@H](C(C)C)C(=O)N2C[C@H](O)C[C@H]2C(=O)N[C@H]([C@@H](C)O)C(=O)N[C@@H]([C@@H](C)O)C(=O)N2CC[C@H](O)[C@H]2C(=O)N[C@@H]([C@H](O)CC(N)=O)C(=O)NCC(=O)N[C@@H]([C@@H](C)O)C(=O)N[C@@H](CCCN)C(=O)O1 | – | – | > 130 | – | – | – |
| CCCCCCCCCCCCC[C@@H]1CC(=O)N[C@@H]([C@@H](C)O)C(=O)N[C@H](C)C(=O)N[C@@H](Cc2ccc(O)cc2)C(=O)N[C@@H](C(C)C)C(=O)N2C[C@H](O)C[C@H]2C(=O)N[C@@H]([C@@H](C)O)C(=O)N[C@@H]([C@@H](C)O)C(=O)N2CC[C@H](O)[C@H]2C(=O)N[C@@H]([C@H](O)CC#N)C(=O)NCC(=O)N[C@@H]([C@@H](C)O)C(=O)N[C@@H](CCN)C(=O)O1 | – | – | 19 | – | – | – |
| CCCCCCCCCCCCC[C@@H]1CC(=O)N[C@@H]([C@@H](C)O)C(=O)N[C@H](C)C(=O)N[C@@H](Cc2ccc(O)cc2)C(=O)N[C@@H](C(C)C)C(=O)N2C[C@H](O)C[C@H]2C(=O)N[C@@H]([C@@H](C)O)C(=O)N[C@@H]([C@@H](C)O)C(=O)N2CC[C@H](O)[C@H]2C(=O)N[C@@H]([C@H](O)CC(N)=O)C(=O)NCC(=O)N[C@@H]([C@@H](C)O)C(=O)N[C@@H](CCCN(C)C)C(=O)O1 | – | – | 45 | – | – | – |
| CCCCCCCCCCCCC[C@@H]1CC(=O)N[C@@H]([C@@H](C)O)C(=O)N[C@H](C)C(=O)N[C@@H](Cc2ccc(O)cc2)C(=O)N[C@@H](C(C)C)C(=O)N2C[C@H](O)C[C@H]2C(=O)N[C@@H]([C@@H](C)O)C(=O)N[C@@H]([C@@H](C)O)C(=O)N2CC[C@H](O)[C@H]2C(=O)N[C@@H]([C@H](O)CC(N)=O)C(=O)NCC(=O)N[C@H]([C@@H](C)O)C(=O)N[C@@H](CCCN(CCN)CCN)C(=O)O1 | 0.42 | 0.1 (≈ 0.0617 µM) | 2 | – | 0.05 | 10 (≈ 6.17 µM) |
| CCCCCCCCCCCCC[C@@H]1CC(=O)N[C@@H]([C@@H](C)O)C(=O)N[C@H](C)C(=O)N[C@@H](Cc2ccc(O)cc2)C(=O)N[C@@H](C(C)C)C(=O)N2C[C@H](O)C[C@H]2C(=O)N[C@@H]([C@@H](C)O)C(=O)N[C@@H]([C@@H](C)O)C(=O)N2CC[C@H](O)[C@H]2C(=O)N[C@@H]([C@H](O)CCN)C(=O)NCC(=O)N[C@@H]([C@@H](C)O)C(=O)N[C@@H](CCN)C(=O)O1 | 0.18 | 0.01 (≈ 0.00664 µM) | 6 | 10 (≈ 6.64 µM) | 0.04 | – |
| CCCCCCCCCCCCC[C@@H]1CC(=O)N[C@@H]([C@@H](C)O)C(=O)N[C@H](C)C(=O)N[C@@H](Cc2ccc(O)cc2)C(=O)N[C@@H](C(C)C)C(=O)N2C[C@H](O)C[C@H]2C(=O)N[C@@H]([C@@H](C)O)C(=O)N[C@@H]([C@@H](C)O)C(=O)N2CC[C@H](O)[C@H]2C(=O)N[C@@H]([C@H](O)CC(N)=O)C(=O)NCC(=O)N[C@@H]([C@@H](C)O)C(=O)N[C@@H](CCCO)C(=O)O1 | – | – | > 520 | – | – | – |
| CCCCCCCCCCCCC[C@@H]1CC(=O)N[C@@H]([C@@H](C)O)C(=O)N[C@H](C)C(=O)N[C@@H](Cc2ccc(OC)cc2)C(=O)N[C@@H](C(C)C)C(=O)N2C[C@H](O)C[C@H]2C(=O)N[C@@H]([C@@H](C)O)C(=O)N[C@@H]([C@@H](C)O)C(=O)N2CC[C@H](O)[C@H]2C(=O)N[C@@H]([C@H](O)CC(N)=O)C(=O)NCC(=O)N[C@@H]([C@@H](C)O)C(=O)N[C@@H](CCCN)C(=O)O1 | – | – | 24 | – | – | – |
